≈ marks a conversion by molar mass, not a printed value.
Experiments:
Assay type in all cases: functional
[1] = tested on: Mycobacterium tuberculosis; test: Antitubercular activity against isoniazid, rifampicin and ethambutol-resistant Mycobacterium tuberculosis clinical isolate after 28 days by agar dilution method; conditions: 672 h
[2] = tested on: Mycobacterium tuberculosis; test: Ratio of rifampicin MIC to compound MIC for multidrug-resistant Mycobacterium tuberculosis clinical isolate
[3] = tested on: Mycobacterium tuberculosis; test: Ratio of isoniazid MIC to compound MIC for multidrug-resistant Mycobacterium tuberculosis clinical isolate
[4] = tested on: Mycobacterium tuberculosis; test: Ratio of ciprofloxacin MIC to compound MIC for multidrug-resistant Mycobacterium tuberculosis clinical isolate
[5] = tested on: Mycobacterium tuberculosis; test: Ratio of ethambutol MIC to compound MIC for multidrug-resistant Mycobacterium tuberculosis clinical isolate

SMILES	MIC [1] [µM]	also measured
Cc1ccc(/C=C2\CN([C@H](C)c3ccccc3)CC3=C2OC(N)=C(c2nc(-c4ccc(Cl)cc4)no2)C3c2ccc(C)cc2)cc1 (stereo in doubt; 9d)	1.24 (≈ 0.778 µg/mL)	–
C[C@H](c1ccccc1)N1CC2=C(OC(N)=C(c3nc(-c4ccccc4)no3)C2c2ccccc2Cl)/C(=C/c2ccccc2Cl)C1 (stereo in doubt; 9e)	1.23 (≈ 0.779 µg/mL)	–
C[C@H](c1ccccc1)N1CC2=C(OC(N)=C(c3nc(-c4ccc(Cl)cc4)no3)C2c2ccccc2Cl)/C(=C/c2ccccc2Cl)C1 (stereo in doubt; 9f)	0.6 (≈ 0.401 µg/mL)	–
C[C@H](c1ccccc1)N1CC2=C(OC(N)=C(c3nc(-c4ccccc4)no3)C2c2ccc(Cl)cc2Cl)/C(=C/c2ccc(Cl)cc2Cl)C1 (stereo in doubt; 9g)	0.57 (≈ 0.4 µg/mL)	–
C[C@H](c1ccccc1)N1CC2=C(OC(N)=C(c3nc(-c4ccc(Cl)cc4)no3)C2c2ccc(Cl)cc2Cl)/C(=C/c2ccc(Cl)cc2Cl)C1 (stereo in doubt; 9h)	0.14 (≈ 0.103 µg/mL)	Ratio [2]: 27.1; Ratio [3]: 81.3; Ratio [4]: 269.5; Ratio [5]: 437
C[C@H](c1ccccc1)N1CC2=C(OC(N)=C(c3nc(-c4ccccc4)no3)C2c2ccccc2)/C(=C/c2ccccc2)C1 (stereo in doubt; 10a)	5.54 (≈ 3.13 µg/mL)	–
C[C@H](c1ccccc1)N1CC2=C(OC(N)=C(c3nc(-c4ccc(Cl)cc4)no3)C2c2ccccc2)/C(=C/c2ccccc2)C1 (stereo in doubt; 10b)	2.6 (≈ 1.56 µg/mL)	–
CC[C@@H](CO)NCCN[C@@H](CC)CO [ETHAMBUTOL]	61.2 (≈ 12.5 µg/mL)	–
NNC(=O)c1ccncc1 [ISONIAZID]	11.4 (≈ 1.56 µg/mL)	–
CO[C@H]1/C=C/O[C@@]2(C)Oc3c(C)c(O)c4c(O)c(c(/C=N/N5CCN(C)CC5)c(O)c4c3C2=O)NC(=O)/C(C)=C\C=C\[C@H](C)[C@H](O)[C@@H](C)[C@@H](O)[C@@H](C)[C@H](OC(C)=O)[C@@H]1C [RIFAMPIN]	3.8 (≈ 3.13 µg/mL)	–
